The values below come from patent EP4722213A1, “NITROGEN-CONTAINING FUNCTIONAL GROUP-SUBSTITUTED PYRIDAZINOPYRIDONE DERIVATIVE AND USE THEREOF” (Sichuan Huiyu Pharmaceutical Co., Ltd., priority 2023, dated 2024).

Where two headings read alike, the source gives them in different places.

In assay [1] the target is T1, SOS1 (Homo sapiens, UniProt Q07889).
T1 sequence (Q07889 1-1333): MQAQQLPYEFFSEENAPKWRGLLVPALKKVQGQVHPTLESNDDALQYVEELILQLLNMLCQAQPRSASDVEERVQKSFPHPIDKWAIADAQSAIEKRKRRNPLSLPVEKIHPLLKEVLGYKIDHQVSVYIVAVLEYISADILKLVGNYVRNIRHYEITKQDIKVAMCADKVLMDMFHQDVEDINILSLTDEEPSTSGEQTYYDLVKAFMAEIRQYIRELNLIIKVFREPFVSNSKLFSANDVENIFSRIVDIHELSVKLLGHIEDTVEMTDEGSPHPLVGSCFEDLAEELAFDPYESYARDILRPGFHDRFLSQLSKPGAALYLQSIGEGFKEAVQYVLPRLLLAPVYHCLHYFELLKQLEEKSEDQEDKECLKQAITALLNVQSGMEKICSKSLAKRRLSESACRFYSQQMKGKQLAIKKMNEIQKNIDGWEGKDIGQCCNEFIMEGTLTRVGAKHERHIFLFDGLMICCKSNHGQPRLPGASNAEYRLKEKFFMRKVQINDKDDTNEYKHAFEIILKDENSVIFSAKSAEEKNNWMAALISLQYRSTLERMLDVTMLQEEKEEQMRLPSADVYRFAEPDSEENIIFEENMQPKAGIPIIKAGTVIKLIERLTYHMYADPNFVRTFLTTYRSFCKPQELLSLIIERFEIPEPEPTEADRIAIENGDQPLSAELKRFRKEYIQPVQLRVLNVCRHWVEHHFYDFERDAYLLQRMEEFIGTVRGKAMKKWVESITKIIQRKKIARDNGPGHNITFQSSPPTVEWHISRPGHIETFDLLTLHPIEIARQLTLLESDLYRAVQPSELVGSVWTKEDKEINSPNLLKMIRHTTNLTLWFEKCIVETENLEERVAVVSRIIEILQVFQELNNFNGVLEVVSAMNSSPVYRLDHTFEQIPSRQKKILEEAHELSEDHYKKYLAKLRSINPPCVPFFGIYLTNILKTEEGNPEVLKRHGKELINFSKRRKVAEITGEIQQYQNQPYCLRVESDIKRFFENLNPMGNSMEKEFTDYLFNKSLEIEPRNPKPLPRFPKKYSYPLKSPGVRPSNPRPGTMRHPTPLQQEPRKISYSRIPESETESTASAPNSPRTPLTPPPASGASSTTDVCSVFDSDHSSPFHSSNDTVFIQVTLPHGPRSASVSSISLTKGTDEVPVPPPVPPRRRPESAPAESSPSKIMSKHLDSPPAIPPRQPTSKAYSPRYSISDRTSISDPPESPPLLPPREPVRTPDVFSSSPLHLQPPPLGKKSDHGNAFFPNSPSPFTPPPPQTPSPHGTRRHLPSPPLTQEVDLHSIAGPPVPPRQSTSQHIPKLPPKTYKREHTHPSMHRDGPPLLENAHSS
Kind of assay: biochemical.

Assay [2] addresses T2, CYP3A4 (Homo sapiens, UniProt P08684).
T2 construct: human liver microsomes were used as the CYP450 enzyme source; from tissue; host or cells: human liver microsomes
Kind of assay: Inhibition of hepatic drug-metabolizing enzymes in human liver microsomes (substrates midazolam and testosterone). The assay is classed as in vitro ADME. The source says:
(§1) The main site of drug metabolism is the liver, and the main component of the mixed-function oxidase system present in the liver is the CYP450 enzyme. This enzyme system causes most clinically observed drug-drug interactions, which in turn leads to an increased incidence of adverse drug reactions. CYP450 is a group of supergene family composed of many isozymes, wherein CYP3A4 acts as a major metabolizing enzyme and is involved in the metabolism of nearly half of clinically used drugs. Similarly, CYP2C9 and CYP2C19 also act as important metabolizing enzymes and are involved in the metabolism of various drugs clinically. Therefore, evaluating the risk of drug-drug interactions by testing the inhibitory activity of compounds on CYP450 enzymes at an early stage can improve the safety of medication use.
(§2) In the present disclosure, human liver microsomes were used as the CYP450 enzyme source. The specific probe substrates for each CYP isoenzyme (wherein CYP3A4 used two substrates, midazolam and testosterone, denoted as CYP3A4-M and CYP3A4-T respectively) were incubated with a series of concentrations of the test compound in the presence of the cofactor NADPH. The production amount of metabolites of probe substrates in the incubation system was determined by LC-MS/MS, and the IC50 values of the test compound against each CYP450 enzyme subtype were calculated to evaluate its inhibitory effect on each CYP450 enzyme subtype. During the experiment, 49 µL of PBS, 50 µL of probe substrate, and 50 µL of human liver microsome working solution were sequentially added to the incubation system, followed by the addition of 1 µL of the test compound working solution at each concentration, and the mixture was mixed well. After pre-incubation at 37°C for 5 min, 50 µL of NADPH was added to initiate the reaction. After incubation for the corresponding time, an appropriate amount of ice-cold acetonitrile containing an internal standard was added to terminate the reaction. The mixture was vortexed to mix well, centrifuged, and the supernatant was taken. The supernatant was injected into LC-MS/MS to determine the production amount of metabolites of the probe substrate. Taking the enzyme activity at the 0-concentration point (characterized by the production amount of metabolites) as 100%, the percentage of residual enzyme activity of metabolites at different concentrations of the test compound was calculated. IC50 was calculated by the residual enzyme activity using Graphpad Prism software.

The target in assay [3] is T3, CYP2C9 (Homo sapiens, UniProt P11712).
T3 construct: human liver microsomes were used as the CYP450 enzyme source; from tissue; host or cells: human liver microsomes
As to the kind of experiment: Inhibition of hepatic drug-metabolizing enzymes in human liver microsomes. The assay is classed as in vitro ADME.
Source text: as §1, §2

The target of assay [4] is T4, CYP2C19 (Homo sapiens, UniProt P33261).
T4 construct: human liver microsomes were used as the CYP450 enzyme source; from tissue; host or cells: human liver microsomes
Described as above. The assay is classed as in vitro ADME.
Source text: as §1, §2

Setting [5] is: substrate midazolam, read-out: Inhibitory activity on drug-metabolizing enzymes (IC50, µM) CYP3A4-M.
The mark [6] stands for this setting: substrate testosterone, read-out: Inhibitory activity on drug-metabolizing enzymes (IC50, µM) CYP3A4-T.
Where [7] appears, read: human liver microsomes, read-out: Inhibitory activity on drug-metabolizing enzymes (IC50, µM) CYP2C9.
The mark [8] stands for this setting: human liver microsomes, read-out: Inhibitory activity on drug-metabolizing enzymes (IC50, µM) CYP2C19.

T4 sequence (P33261 whole entry): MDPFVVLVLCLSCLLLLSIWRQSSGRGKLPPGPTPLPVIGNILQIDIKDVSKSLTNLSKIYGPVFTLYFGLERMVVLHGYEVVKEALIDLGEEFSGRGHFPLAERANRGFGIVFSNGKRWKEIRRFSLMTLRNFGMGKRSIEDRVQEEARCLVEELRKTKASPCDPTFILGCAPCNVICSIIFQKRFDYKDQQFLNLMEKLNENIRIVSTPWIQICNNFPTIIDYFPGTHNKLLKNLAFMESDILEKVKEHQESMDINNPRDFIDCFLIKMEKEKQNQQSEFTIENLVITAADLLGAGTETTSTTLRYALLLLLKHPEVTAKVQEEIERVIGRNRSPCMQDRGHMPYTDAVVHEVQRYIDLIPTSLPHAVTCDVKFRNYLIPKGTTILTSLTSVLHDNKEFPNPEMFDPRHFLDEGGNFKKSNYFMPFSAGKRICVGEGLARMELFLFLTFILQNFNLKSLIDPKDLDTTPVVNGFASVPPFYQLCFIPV
T3 sequence (P11712 whole entry): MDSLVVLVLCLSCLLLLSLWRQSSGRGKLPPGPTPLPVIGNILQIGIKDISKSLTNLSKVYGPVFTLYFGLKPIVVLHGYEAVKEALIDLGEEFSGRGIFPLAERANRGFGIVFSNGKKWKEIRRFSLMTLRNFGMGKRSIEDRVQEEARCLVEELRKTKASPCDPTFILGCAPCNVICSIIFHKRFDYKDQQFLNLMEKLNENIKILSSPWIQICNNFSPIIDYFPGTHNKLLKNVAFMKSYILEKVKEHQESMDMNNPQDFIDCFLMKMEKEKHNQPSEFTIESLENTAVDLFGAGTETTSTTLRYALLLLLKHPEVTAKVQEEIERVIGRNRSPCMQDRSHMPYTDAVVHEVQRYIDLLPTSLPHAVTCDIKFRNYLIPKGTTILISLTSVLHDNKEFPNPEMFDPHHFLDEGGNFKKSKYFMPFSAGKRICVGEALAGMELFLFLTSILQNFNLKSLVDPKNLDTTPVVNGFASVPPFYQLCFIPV
T2 sequence (P08684 whole entry): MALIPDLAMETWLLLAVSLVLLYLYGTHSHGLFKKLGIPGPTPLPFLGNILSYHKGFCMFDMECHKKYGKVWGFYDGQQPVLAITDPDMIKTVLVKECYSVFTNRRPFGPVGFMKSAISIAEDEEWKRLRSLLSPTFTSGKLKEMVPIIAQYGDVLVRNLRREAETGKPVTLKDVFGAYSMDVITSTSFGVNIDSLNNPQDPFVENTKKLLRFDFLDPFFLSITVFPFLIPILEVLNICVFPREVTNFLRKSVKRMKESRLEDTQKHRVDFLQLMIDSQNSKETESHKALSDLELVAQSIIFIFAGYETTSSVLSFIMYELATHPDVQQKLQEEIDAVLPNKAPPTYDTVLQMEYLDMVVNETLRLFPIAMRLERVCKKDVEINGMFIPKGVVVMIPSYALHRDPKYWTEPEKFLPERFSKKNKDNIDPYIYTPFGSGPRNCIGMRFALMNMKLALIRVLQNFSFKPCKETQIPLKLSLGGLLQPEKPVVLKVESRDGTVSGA

On to `CNc1nnc(N[C@H](C)c2cccc(C(F)F)c2F)c2cn(C3(C)CC3)c(=O)cc12.O=CO` [Example 9, (R)-4-((1-(3-(difluoromethyl)-2-fluorophenyl)ethyl)amino)-1-(methylamino)-6-(1-methylcyclopropyl) pyrido[3,4-d]pyridazin-7(6H)-one formate], for which the half-maximal inhibitory concentration (IC50) is 4.5 nM in assay [1]; above 10 µM in assay [2] (setting [5]); above 10 µM in assay [2] (setting [6]); above 10 µM in assay [3] (setting [7]); above 10 µM in assay [4] (setting [8]).

Take `CC(C)Nc1nnc(N[C@H](C)c2cccc(C(F)F)c2F)c2cn(C3(C)CC3)c(=O)cc12.O=CO` [Example 12, (R)-4-((1-(3-(difluoromethyl)-2-fluorophenyl)ethyl)amino)-1-(isopropylamino)-6-(1-methylcyclopropyl) pyrido[3,4-d]pyridazin-7(6H)-one formate]: the IC50 was 4.9 nM in assay [1]; above 10 µM in assay [2] (setting [5]); above 10 µM in assay [2] (setting [6]); above 10 µM in assay [3] (setting [7]); above 10 µM in assay [4] (setting [8]).

Consider `CNc1nnc(N[C@H](C)c2cccc(C(F)(F)F)c2C)c2cn(C3CC3)c(=O)cc12` [Example 52, (R)-6-cyclopropyl-4-((1-(2-methyl-3-(trifluoromethyl)phenyl)ethyl)amino)-1-(methylamino)pyrid o[3,4-d]pyridazin-7(6H)-one], for which the IC50 in assay [1] is 5.7 nM; in assay [2] (setting [5]) it was above 10 µM; in assay [2] (setting [6]) it was above 10 µM; in assay [3] (setting [7]), above 10 µM; in assay [4] (setting [8]), above 10 µM.

`CNc1nnc(N[C@H](C)c2cccc(C(F)(F)F)c2C)c2cn(C3(C)CC3)c(=O)cc12` [Example 73, (R)-4-((1-(2-methyl-3-(trifluoromethyl)phenyl)ethyl)amino)-1-(methylamino)-6-(1-methylcyclopropyl) pyrido[3,4-d]pyridazin-7(6H)-one]: the 50% inhibitory concentration (IC50) in assay [1] was 4.4 nM; in assay [2] (setting [5]), above 10 µM; in assay [2] (setting [6]), above 10 µM; in assay [3] (setting [7]), above 10 µM; in assay [4] (setting [8]) it was above 10 µM.

For the compound `C[C@@H](Nc1nnc(N2CCN(C)CC2)c2cc(=O)n(C3CC3)cc12)c1cccc(C(F)F)c1F` [Example 77], the half-inhibitory concentration (IC50) is 5.9 nM in assay [1]; 7.81 µM in assay [2] (Inhibitory activity on drug-metabolizing enzymes (IC50, µM) CYP3A4-M, substrate midazolam); above 10 µM in assay [2] (Inhibitory activity on drug-metabolizing enzymes (IC50, µM) CYP3A4-T, substrate testosterone); above 10 µM in assay [3]; above 10 µM in assay [4].

For the compound `C[C@@H](Nc1nnc(N2CCN(C)CC2)c2cc(=O)n(C3(C)CC3)cc12)c1cccc(C(F)F)c1F.O=CO` [Example 80, (R)-4-((1-(3-(difluoromethyl)-2-fluorophenyl)ethyl)amino)-6-(1-methylcyclopropyl)-1-(4-methylpiperazin-1-yl)pyrido[3,4-d]pyridazin-7(6H)-one formate], the half-maximal inhibitory concentration (IC50) was 4.5 nM in assay [1]; above 10 µM in assay [2] (setting [5]); above 10 µM in assay [2] (setting [6]); above 10 µM in assay [3] (setting [7]); above 10 µM in assay [4] (setting [8]).

Regarding `C[C@@H](Nc1nnc(N2CCN(C)CC2)c2cc(=O)n(C3CCC3)cc12)c1cccc(C(F)F)c1F` [Example 88, (R)-6-cyclobutyl-4-((1-(3-(difluoromethyl)-2-fluorophenyl)ethyl)amino)-1-(4-methylpiperazin-1-yl)pyrido[3,4-d]pyridazin-7(6H)-one], the IC50 in assay [1] is 4.5 nM; in assay [2] (setting [5]), above 10 µM; in assay [2] (setting [6]), above 10 µM; in assay [3] (setting [7]), above 10 µM; in assay [4] (setting [8]), above 10 µM.

On to `CCN1CCN(c2nnc(N[C@H](C)c3cccc(C(F)F)c3F)c3cn(C4CC(F)(F)C4)c(=O)cc23)CC1` [Example 98, (R)-6-(3,3-difluorocyclobutyl)-4-((1-(3-(difluoromethyl)-2-fluorophenyl)ethyl)amino)-1-(4-ethylpiperazin-1-yl)pyrido[3,4-d]pyridazin-7(6H)-one], for which the IC50 in assay [1] is 4.3 nM; in assay [2] (setting [5]) it was above 10 µM; in assay [2] (setting [6]), above 10 µM; in assay [3] (setting [7]) it was above 10 µM; in assay [4] (setting [8]) it was above 10 µM.

Take `CCN1CCN(c2nnc(N[C@H](C)c3cccc(C(F)F)c3F)c3cn(N4CCOCC4)c(=O)cc23)CC1` [Example 109, (R)-4-((1-(3-(difluoromethyl)-2-fluorophenyl)ethyl)amino)-1-(4-ethylpiperazin-1-yl)-6-morpholinopyrido[3 ,4-d]pyridazin-7(6H)-one]: the half-inhibitory concentration (IC50) in assay [1] is 4.2 nM; in assay [2] (setting [5]), above 10 µM; in assay [2] (setting [6]) it was above 10 µM; in assay [3] (setting [7]), above 10 µM; in assay [4] (setting [8]), above 10 µM.

Take `C[C@@H](Nc1nnc(N2CCN(C)CC2)c2cc(=O)n(N3CCOCC3)cc12)c1cccc(C(F)F)c1F` [Example 110, (R)-4-((1-(3-(difluoromethyl)-2-fluorophenyl)ethyl)amino)-1-(4-methylpiperazin-1-yl)-6-morpholinopyrido[3 ,4-d]pyridazin-7(6H)-one]: the 50% inhibitory concentration (IC50) was 3.3 nM in assay [1]; above 10 µM in assay [2] (setting [5]); above 10 µM in assay [2] (setting [6]); above 10 µM in assay [3] (setting [7]); above 10 µM in assay [4] (setting [8]).

On to `CC(C)N1CCN(c2nnc(N[C@H](C)c3cccc(C(F)F)c3F)c3cn(N4CCOCC4)c(=O)cc23)CC1` [Example 111, (R)-4-((1-(3-(difluoromethyl)-2-fluorophenyl)ethyl)amino)-1-(4-isopropylpiperazin-1-yl)-6-morpholinopyrido[3 ,4-d]pyridazin-7(6H)-one], for which the half-maximal inhibitory concentration (IC50) in assay [1] was 4.4 nM; in assay [2] (setting [5]), above 10 µM; in assay [2] (setting [6]) it was above 10 µM; in assay [3] (setting [7]), above 10 µM; in assay [4] (setting [8]), above 10 µM.

Regarding `CCN1CCN(c2nnc(N[C@H](C)c3cccc(C(F)F)c3F)c3cn(C4CCC4)c(=O)cc23)CC1` [Example 112, (R)-6-cyclobutyl-4-((1-(3-(difluoromethyl)-2-fluorophenyl)ethyl)amino)-1-(4-ethylpiperazin-1-yl)pyrido[3,4-d]pyridazin-7(6H)-one], the half-inhibitory concentration (IC50) in assay [1] is 5 nM; in assay [2] (setting [5]), above 10 µM; in assay [2] (setting [6]), above 10 µM; in assay [3] (setting [7]) it was above 10 µM; in assay [4] (setting [8]) it was above 10 µM.
